Laboratory results taken from PMC7830303, “Development of Antimicrobial Stapled Peptides Based on Magainin 2 Sequence” (Molecules, 2021).
Converted amounts (≈) assume the structure as drawn. Bridge positions count the residues as written; N and C are the ends. Square brackets hold non-standard residues; d marks the D form. Peptide text beside a SMILES is read from it. * marks the point of attachment. Stearoyl = CCCCCCCCCCCCCCCCCC(=O)*; R8 = C=CCCCCCC[C@@](C)(N)C(=O)O; Lauroyl = CCCCCCCCCCCC(=O)*; S5 = C=CCCC[C@](C)(N)C(=O)O; Hexanoyl = CCCCCC(=O)*; Aib = CC(C)(N)C(=O)O

Legend:
Pseudomonas aeruginosa = format: cell-based; settings: 16 h
Procedure: (§1) Selected bacterial strains were obtained from Biological Resource Center, NITE (NBRC; Tokyo, Japan). E. coli DH5α was purchased from BioDynamics Laboratory, Inc. (Tokyo, Japan). The antimicrobial activities of the peptides against the gram-positive S. aureus and gram-negative E. coli DH5α, P. aeruginosa, and MDRP were measured using standard broth microdilution method as previously described. Briefly, the bacteria were inoculated and grown overnight at 37 °C on agar media for other organisms i and then collected with liquid media for other organisms ii, according to Japanese Pharmacopoeia, 17th Edition. Each peptide was 2-fold serially diluted with an initial concentration of 500 μM to a final concentration of 1 μM using PBS. Then, 10 μL of the peptide solution was added to each well of a sterile 96-well plate. Subsequently, 90 μL of inoculation with 10^4 colony forming units (CFUs) per mL were added to each well, and the plate was incubated at 35 °C for 16 h.

Escherichia coli DH5α = format: cell-based; settings: 16 h
Procedure: as §1

Staphylococcus aureus = format: cell-based; settings: 16 h
Procedure: as §1

digestive enzymes = settings: cited from earlier work
Source text: Mag2 comprises cationic and hydrophobic amino acid residues and employs a helical structure […]. These properties are required for interaction with microbial membranes, and subsequent Mag2 insertions into membranes induce bacterial pore formation and ion efflux to exert their antimicrobial activity. The antimicrobial activity of AMPs targets the bacterial ...

[1] = system: multiple-drug resistant P. aeruginosa (MDRP); format: cell-based, Pseudomonas aeruginosa; settings: multiple-drug resistant (MDRP, 16 h)
Procedure: as §1

[2] = pH 7.4

Row | SMILES | MIC, Gram Negative, P.a. (Pseudomonas aeruginosa) [µM] | MIC, Gram Negative, E.c. (DH5α) (Escherichia coli DH5α) [µM] | MIC, Gram Positive, S.a. (Staphylococcus aureus) [µM] | MIC, Gram Negative, MDRP [1] [µM] | Solubility in the aqueous buffer solution [2] | Resistance against digestive enzymes (digestive enzymes)
1 | CC[C@H](C)[C@H](NC(=O)CN)C(=O)N[C@@H](CCCCN)C(=O)N[C@@H](CCCCN)C(=O)N[C@@H](Cc1ccccc1)C(=O)N[C@@H](CC(C)C)C(=O)N[C@@H](CCCCN)C(=O)N[C@@H](CO)C(=O)NC(C)(C)C(=O)N[C@@H](CCCCN)C(=O)N[C@@H](CCCCN)C(=O)N[C@@H](Cc1ccccc1)C(=O)N[C@H](C(=O)N[C@@H](CCCCN)C(=O)NC(C)(C)C(=O)N[C@@H](Cc1ccccc1)C(=O)N[C@@H](CCCCN)C(N)=O)C(C)C [Peptide 1, reference compound] (H-GIKKFLKS[Aib]KKFVK[Aib]FK-NH2) | 3.125 (≈ 6.24 µg/mL) | 3.125 (≈ 6.24 µg/mL) | 12.5 (≈ 24.9 µg/mL) | 3.125 (≈ 6.24 µg/mL) |  | showed resistance against digestive enzymes
2 | CC[C@H](C)[C@H](NC(=O)CN)C(=O)N[C@@H](CCCCN)C(=O)N[C@@H](CCCCN)C(=O)N[C@@]1(C)CCCC=CCCC[C@@](C)(C(=O)N[C@@H](CCCCN)C(=O)N[C@@H](CCCCN)C(=O)N[C@@H](Cc2ccccc2)C(=O)N[C@H](C(=O)N[C@@H](CCCCN)C(=O)N[C@@H](C)C(=O)N[C@@H](Cc2ccccc2)C(=O)N[C@@H](CCCCN)C(N)=O)C(C)C)NC(=O)[C@H](CO)NC(=O)[C@H](CCCCN)NC(=O)[C@H](CC(C)C)NC1=O [Peptide 3] (H-GIKK[S5]LKS[S5]KKFVKAFK-NH2; staple 5-9) | 3.125 (≈ 6.25 µg/mL) | 1.56 (≈ 3.12 µg/mL) | 3.125 (≈ 6.25 µg/mL) | 0.78 (≈ 1.56 µg/mL) |  | 
3 | CC[C@H](C)[C@H](NC(=O)CN)C(=O)N[C@@H](CCCCN)C(=O)N[C@@H](CCCCN)C(=O)N[C@@H](Cc1ccccc1)C(=O)N[C@@H](CC(C)C)C(=O)N[C@@H](CCCCN)C(=O)N[C@@H](CO)C(=O)N[C@@]1(C)CCCC=CCCC[C@@](C)(C(=O)N[C@@H](CCCCN)C(=O)N[C@@H](C)C(=O)N[C@@H](Cc2ccccc2)C(=O)N[C@@H](CCCCN)C(N)=O)NC(=O)[C@H](Cc2ccccc2)NC(=O)[C@H](CCCCN)NC(=O)[C@H](CCCCN)NC1=O [Peptide 5] (H-GIKKFLKS[S5]KKF[S5]KAFK-NH2; staple 9-13) | 6.25 (≈ 12.8 µg/mL) | 1.56 (≈ 3.19 µg/mL) | 12.5 (≈ 25.6 µg/mL) | 3.125 (≈ 6.4 µg/mL) |  | 
4 | CC[C@H](C)[C@H](NC(=O)CN)C(=O)N[C@@H](CCCCN)C(=O)N[C@@H](CCCCN)C(=O)N[C@@H](Cc1ccccc1)C(=O)N[C@@H](CC(C)C)C(=O)N[C@@H](CCCCN)C(=O)N[C@@H](CO)C(=O)N[C@@H](C)C(=O)N[C@@H](CCCCN)C(=O)N[C@@H](CCCCN)C(=O)N[C@@]1(C)CCCC=CCCC[C@@](C)(C(=O)N[C@@H](CCCCN)C(N)=O)NC(=O)[C@H](C)NC(=O)[C@H](CCCCN)NC(=O)[C@H](C(C)C)NC1=O [Peptide 6] (H-GIKKFLKSAKK[S5]VKA[S5]K-NH2; staple 12-16) | 1.56 (≈ 3 µg/mL) | 1.56 (≈ 3 µg/mL) | 3.125 (≈ 6.01 µg/mL) | 0.78 (≈ 1.5 µg/mL) |  | 
5 | CC[C@H](C)[C@H](NC(=O)CN)C(=O)N[C@@H](CCCCN)C(=O)N[C@@H](CCCCN)C(=O)N[C@]1(C)CCCCCCC=CCCC[C@@](C)(C(=O)N[C@H](C(=O)N[C@@H](CCCCN)C(=O)N[C@@H](C)C(=O)N[C@@H](Cc2ccccc2)C(=O)N[C@@H](CCCCN)C(N)=O)C(C)C)NC(=O)[C@H](CCCCN)NC(=O)[C@H](CCCCN)NC(=O)[C@H](C)NC(=O)[C@H](CO)NC(=O)[C@H](CCCCN)NC(=O)[C@H](CC(C)C)NC1=O [Peptide 7] (H-GIKK[R8]LKSAKK[S5]VKAFK-NH2; staple 5-12) | 3.125 (≈ 6.14 µg/mL) | 3.125 (≈ 6.14 µg/mL) | 25 (≈ 49.1 µg/mL) | 1.56 (≈ 3.07 µg/mL) |  | 
6 | CC[C@H](C)[C@H](NC(=O)CN)C(=O)N[C@@H](CCCCN)C(=O)N[C@@H](CCCCN)C(=O)N[C@@H](Cc1ccccc1)C(=O)N[C@@H](CC(C)C)C(=O)N[C@@H](CCCCN)C(=O)N[C@]1(C)CCCCCCC=CCCC[C@@](C)(C(=O)N[C@@H](Cc2ccccc2)C(=O)N[C@@H](CCCCN)C(N)=O)NC(=O)[C@H](CCCCN)NC(=O)[C@H](C(C)C)NC(=O)[C@H](Cc2ccccc2)NC(=O)[C@H](CCCCN)NC(=O)[C@H](CCCCN)NC(=O)[C@H](C)NC1=O [Peptide 8] (H-GIKKFLK[R8]AKKFVK[S5]FK-NH2; staple 8-15) | >50 | 6.25 (≈ 13.1 µg/mL) | >50 | 3.125 (≈ 6.57 µg/mL) |  | 
7 | CC[C@H](C)[C@H](NC(=O)CN)C(=O)N[C@@H](CCCCN)C(=O)N[C@@H](CCCCN)C(=O)N[C@@H](Cc1ccccc1)C(=O)N[C@@H](CC(C)C)C(=O)N[C@@H](CCCCN)C(=O)N[C@@H](CO)C(=O)N[C@]1(C)CCCCCCC=CCCC[C@@](C)(C(=O)N[C@@H](CCCCN)C(N)=O)NC(=O)[C@H](C)NC(=O)[C@H](CCCCN)NC(=O)[C@H](C(C)C)NC(=O)[C@H](Cc2ccccc2)NC(=O)[C@H](CCCCN)NC(=O)[C@H](CCCCN)NC1=O [Peptide 9] (H-GIKKFLKS[R8]KKFVKA[S5]K-NH2; staple 9-16) | 6.25 (≈ 12.8 µg/mL) | 3.125 (≈ 6.38 µg/mL) | 6.25 (≈ 12.8 µg/mL) | 3.125 (≈ 6.38 µg/mL) |  | 

Continued, in another order:

Row | MIC, Gram Negative, P.a. (Pseudomonas aeruginosa) [µM] | MIC, Gram Negative, E.c. (DH5α) (Escherichia coli DH5α) [µM] | MIC, Gram Positive, S.a. (Staphylococcus aureus) [µM] | MIC, Gram Negative, MDRP [1] [µM] | Solubility in the aqueous buffer solution [2] | SMILES | Resistance against digestive enzymes (digestive enzymes)
8 | 1.56 (≈ 3.14 µg/mL) | 1.56 (≈ 3.14 µg/mL) | 3.125 (≈ 6.29 µg/mL) | 1.56 (≈ 3.14 µg/mL) |  | CC[C@H](C)[C@@H]1NC(=O)[C@@](C)(N)CCCC=CCCC[C@@](C)(C(=O)N[C@@H](CC(C)C)C(=O)N[C@@H](CCCCN)C(=O)N[C@@H](CO)C(=O)N[C@@H](C)C(=O)N[C@@H](CCCCN)C(=O)N[C@@H](CCCCN)C(=O)N[C@@H](Cc2ccccc2)C(=O)N[C@H](C(=O)N[C@@H](CCCCN)C(=O)N[C@@H](C)C(=O)N[C@@H](Cc2ccccc2)C(=O)N[C@@H](CCCCN)C(N)=O)C(C)C)NC(=O)[C@H](CCCCN)NC(=O)[C@H](CCCCN)NC1=O [Peptide 2] (H-[S5]IKK[S5]LKSAKKFVKAFK-NH2; staple 1-5) | 
9 | 1.56 (≈ 3.09 µg/mL) | 1.56 (≈ 3.09 µg/mL) | 6.25 (≈ 12.4 µg/mL) | 0.78 (≈ 1.55 µg/mL) |  | CC[C@H](C)[C@H](NC(=O)CN)C(=O)N[C@@H](CCCCN)C(=O)N[C@@H](CCCCN)C(=O)N[C@@H](Cc1ccccc1)C(=O)N[C@@H](CC(C)C)C(=O)N[C@@H](CCCCN)C(=O)N[C@@]1(C)CCCC=CCCC[C@@](C)(C(=O)N[C@H](C(=O)N[C@@H](CCCCN)C(=O)N[C@@H](C)C(=O)N[C@@H](Cc2ccccc2)C(=O)N[C@@H](CCCCN)C(N)=O)C(C)C)NC(=O)[C@H](CCCCN)NC(=O)[C@H](CCCCN)NC(=O)[C@H](C)NC1=O [Peptide 4] (H-GIKKFLK[S5]AKK[S5]VKAFK-NH2; staple 8-12) | 
10 | 3.125 (≈ 6.6 µg/mL) | 1.56 (≈ 3.29 µg/mL) | 1.56 (≈ 3.29 µg/mL) | 3.125 (≈ 6.6 µg/mL) |  | CCCCCC(=O)N[C@@]1(C)CCCC=CCCC[C@@](C)(C(=O)N[C@@H](CC(C)C)C(=O)N[C@@H](CCCCN)C(=O)N[C@@H](CO)C(=O)N[C@@H](C)C(=O)N[C@@H](CCCCN)C(=O)N[C@@H](CCCCN)C(=O)N[C@@H](Cc2ccccc2)C(=O)N[C@H](C(=O)N[C@@H](CCCCN)C(=O)N[C@@H](C)C(=O)N[C@@H](Cc2ccccc2)C(=O)N[C@@H](CCCCN)C(N)=O)C(C)C)NC(=O)[C@H](CCCCN)NC(=O)[C@H](CCCCN)NC(=O)[C@H]([C@@H](C)CC)NC1=O [Peptide C6-2] (Hexanoyl-[S5]IKK[S5]LKSAKKFVKAFK-NH2; staple 1-5) | 
11 | 12.5 (≈ 27.4 µg/mL) | 6.25 (≈ 13.7 µg/mL) | 6.25 (≈ 13.7 µg/mL) | 25 (≈ 54.9 µg/mL) |  | CCCCCCCCCCCC(=O)N[C@@]1(C)CCCC=CCCC[C@@](C)(C(=O)N[C@@H](CC(C)C)C(=O)N[C@@H](CCCCN)C(=O)N[C@@H](CO)C(=O)N[C@@H](C)C(=O)N[C@@H](CCCCN)C(=O)N[C@@H](CCCCN)C(=O)N[C@@H](Cc2ccccc2)C(=O)N[C@H](C(=O)N[C@@H](CCCCN)C(=O)N[C@@H](C)C(=O)N[C@@H](Cc2ccccc2)C(=O)N[C@@H](CCCCN)C(N)=O)C(C)C)NC(=O)[C@H](CCCCN)NC(=O)[C@H](CCCCN)NC(=O)[C@H]([C@@H](C)CC)NC1=O [Peptide C12-2] (Lauroyl-[S5]IKK[S5]LKSAKKFVKAFK-NH2; staple 1-5) | 
12 | >50 | >50 | >50 | >50 | poor solubility | CCCCCCCCCCCCCCCCCC(=O)N[C@@]1(C)CCCC=CCCC[C@@](C)(C(=O)N[C@@H](CC(C)C)C(=O)N[C@@H](CCCCN)C(=O)N[C@@H](CO)C(=O)N[C@@H](C)C(=O)N[C@@H](CCCCN)C(=O)N[C@@H](CCCCN)C(=O)N[C@@H](Cc2ccccc2)C(=O)N[C@H](C(=O)N[C@@H](CCCCN)C(=O)N[C@@H](C)C(=O)N[C@@H](Cc2ccccc2)C(=O)N[C@@H](CCCCN)C(N)=O)C(C)C)NC(=O)[C@H](CCCCN)NC(=O)[C@H](CCCCN)NC(=O)[C@H]([C@@H](C)CC)NC1=O [Peptide C18-2] (Stearoyl-[S5]IKK[S5]LKSAKKFVKAFK-NH2; staple 1-5) | 
